Laboratory results reported in patent publication US20150238614A1, “STABILISED AMORPHOUS FORM OF AGOMELATINE, A PROCESS FOR ITS PREPARATION AND PHARMACEUTICAL COMPOSITIONS CONTAINING IT” (LES LABORATOIRES SERVIER, priority 2012, published 2015).
≈ marks a conversion by molar mass, not a printed value.

Assays:
[1] = Glass transition temperature by scanning calorimetric analysis (DSC); format: physicochemical
Method: The Applicant has now discovered that agomelatine has an amorphous state whose glass transition temperature has been measured at −6° C. by scanning calorimetric analysis, or DSC (“Differential Scanning calorimetry”). Above that temperature, the active ingredient undergoes a transition towards a crystalline form. Preserving agomelatine in the amorphous state at ambient temperature is therefore not possible.

[2] = Solubility study, Crystal16 apparatus, pH 6.8 buffer, nephelometric detection; format: physicochemical; conditions: pH 6.8 buffer solution, aqueous buffer, thermodynamic from solid, 25° C., reference under the study conditions, read-out: Solubility of agomelatine (reference)
Method: Various concentrations were tested and the presence of insoluble particles was monitored by nephelometric detection.

[3] = 25° C.; cited from earlier work

Glass transition temperature of the amorphous state [1]: −6 °C
solubility at 4 h [2]: 140 µg/mL (≈ 575 µM)
SMILES: COc1ccc2cccc(CCNC(C)=O)c2c1 [agomelatine, N-[2-(7-methoxy-1-naphthyl)ethyl]acetamide]
Solubility of agomelatine in water [3]: less than 0.15 mg/ml
